Target: T1, ligand binding domain of human ROR gamma (Homo sapiens, UniProt P51449)
T1 construct: NM_001001523; expressed in transfected cells; host or cells: HEK293T
T1 sequence (P51449 247-497 isoform P51449-2): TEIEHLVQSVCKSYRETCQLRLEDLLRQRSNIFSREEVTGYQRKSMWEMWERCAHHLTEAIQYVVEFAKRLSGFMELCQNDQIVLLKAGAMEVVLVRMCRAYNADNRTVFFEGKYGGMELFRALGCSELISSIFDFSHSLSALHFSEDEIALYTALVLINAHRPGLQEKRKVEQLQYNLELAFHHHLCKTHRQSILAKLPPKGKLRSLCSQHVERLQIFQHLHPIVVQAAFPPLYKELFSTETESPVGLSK
Experiment: ROR gamma reporter gene assay (GAL4-RORγ LBD luciferase, Dual-Glo)
Type: cell-based
Details: HEK293T cells transfected with pM-ROR gamma, 8 concentrations 3.5 nM to 10.5 μM, 24 h incubation; read-out: result (pIC50, inhibition of RORγ transcriptional activity) (converted)
Method in brief: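 Inhibition of RORγ-driven transcription was measured in HEK293T cells expressing a GAL4 fusion of the human RORγ LBD (aa 247-497), with renilla luciferase as internal control. Cells in 10% charcoal-stripped serum received compound (3.5 nM–10.5 μM) for 24 h.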

| Structure (SMILES) | IC50 [pM] |
| --- | --- |
| Cc1cc(Cl)c(C(=O)CN(CC2(F)CCCC2)C(=O)c2cnn([C@H]3CC[C@](C)(C(=O)O)CC3)c2C(F)(F)F)c(Cl)c1 [Example 282, trans-4-(4-((2-(2,6-dichloro-4-methylphenyl)-2-oxoethyl)-((1-fluorocyclopentyl)methyl)carbamoyl)-5-(trifluoromethyl)pyrazol-1-yl)-1-methylcyclohexane-1-carboxylic acid] | 3390 |
| CC(C)[C@H]1C[C@@H]1N(CC(=O)c1c(Cl)cncc1Cl)C(=O)c1cnn([C@H]2CC[C@](C)(C(=O)O)CC2)c1C(F)(F)F [Example 346, trans-4-(4-((2-(3,5-dichloropyridin-4-yl)-2-oxoethyl)-((1S,2R)-2-propan-2-ylcyclopropyl)carbamoyl)-5-(trifluoromethyl)pyrazol-1-yl)-1-methylcyclohexane-1-carboxylic acid] | 110000 |
| CC1(C)[C@@H]2C[C@H](N(C[C@H](O)c3ccccc3C(F)(F)F)C(=O)c3cnn([C@H]4CC[C@](C)(C(=O)O)CC4)c3C(F)(F)F)C[C@@H]21 [Example 372, trans-4-(4-(((1R,3r,5S)-6,6-dimethylbicyclo[3.1.0]hexan-3-yl)(2-hydroxy-2-(2-(trifluoromethyl)phenyl)ethyl)carbamoyl)-5-(trifluoromethyl)-1H-pyrazol-1-yl)-1-methylcyclohexanecarboxylic acid] | 331000 |
| COc1cc(Cl)cc(Cl)c1C(=O)CN(Cc1cc(F)cc(F)c1)C(=O)c1cnn([C@H]2CC[C@H](C(=O)O)CC2)c1C(F)(F)F [Example 112, trans-4-(4-((2-(2,4-dichloro-6-methoxyphenyl)-2-oxoethyl)-((3,5-difluorophenyl)methyl)carbamoyl)-5-(trifluoromethyl)pyrazol-1-yl)cyclohexane-1-carboxylic acid] | 61700 |
| CC1(C)[C@@H]2C[C@H](N(CCn3cnc4cccc(Cl)c43)C(=O)c3cnn([C@H]4CC[C@](C)(C(=O)O)CC4)c3C(F)(F)F)C[C@@H]21 [Example 405, trans-4-(4-((2-(7-chloro-1H-benzo(d)imidazol-1-yl)ethyl)((1R,3r,5S)-6,6-dimethylbicyclo[3.1.0]hexan-3-yl)carbamoyl)-5-(trifluoromethyl)-1H-pyrazol-1-yl)-1-methylcyclohexanecarboxylic acid] | ≥ 1.05e+07 |
| CC1(C)[C@@H]2C[C@H](N(CC(=O)c3c(Cl)cncc3Cl)C(=O)c3cnn([C@H]4CC[C@H](C(=O)O)CC4)c3C(F)(F)F)C[C@@H]21 [Example 211, trans-4-(4-((2-(3,5-dichloropyridin-4-yl)-2-oxoethyl)-((1R,3r,5S)-6,6-dimethyl-3-bicyclo[3.1.0]hexanyl)carbamoyl)-5-(trifluoromethyl)pyrazol-1-yl)cyclohexane-1-carboxylic acid] | 22400 |
| O=C(CN(C(=O)c1cnn([C@H]2CC[C@H](C(=O)O)CC2)c1C(F)(F)F)C1CCCCC1)c1c(Cl)cncc1Cl [Example 174, trans-4-(4-(cyclohexyl-(2-(3,5-dichloropyridin-4-yl)-2-oxoethyl)carbamoyl)-5-(trifluoromethyl)pyrazol-1-yl)cyclohexane-1-carboxylic acid] | 661000 |
| CC(C)(C)OCCN(CC(=O)c1c(Cl)cc(C(F)(F)F)cc1Cl)C(=O)c1cnn([C@H]2CC[C@](C)(C(=O)O)CC2)c1C(F)(F)F [Example 149, trans-4-(4-((2-(2,6-dichloro-4-(trifluoromethyl)phenyl)-2-oxoethyl)-(2-((2-methylpropan-2-yl)oxy)ethyl)carbamoyl)-5-(trifluoromethyl)pyrazol-1-yl)-1-methylcyclohexane-1-carboxylic acid] | 60300 |
| O=C(CN(C(=O)c1cnn([C@H]2CC[C@H](C(=O)O)CC2)c1C(F)(F)F)[C@H]1CC[C@@H](C(F)(F)F)CC1)c1c(Cl)cncc1Cl [Example 212, trans-4-(4-((2-(3,5-dichloropyridin-4-yl)-2-oxoethyl)-(4-(trifluoromethyl)cyclohexyl)carbamoyl)-5-(trifluoromethyl)pyrazol-1-yl)cyclohexane-1-carboxylic acid] | 20000 |
| CC12CCC(CN(CC(=O)c3c(Cl)cncc3Cl)C(=O)c3cnn([C@H]4CC[C@](C)(C(=O)O)CC4)c3Cl)(CC1)O2 [Example 386, trans-4-(5-chloro-4-((2-(3,5-dichloropyridin-4-yl)-2-oxoethyl)-((1-methyl-7-oxabicyclo[2.2.1]heptan-4-yl)methyl)carbamoyl)pyrazol-1-yl)-1-methylcyclohexane-1-carboxylic acid] | 141000 |
| O=C(c1cnn([C@H]2CC[C@H](C(=O)O)CC2)c1C(F)(F)F)N(Cc1ccc(F)cc1)CC(F)c1c(Cl)cccc1Cl (stereo partly drawn) [Example 91, trans-4-(4-((2-(2,6-dichlorophenyl)-2-fluoroethyl)(4-fluorobenzyl)carbamoyl) (trifluoromethyl)-1H-pyrazol-1-yl)cyclohexanecarboxylic acid] | 4370 |
| Cc1cc(Cl)c(C(=O)CN(C(=O)c2cnn([C@H]3CC[C@](C)(C(=O)O)CC3)c2C(F)(F)F)[C@H]2C[C@@H]3[C@H](C2)C3(C)C)c(Cl)c1 [Example 277, trans-4-(4-((2-(2,6-dichloro-4-methylphenyl)-2-oxoethyl)((1R,3r,5S)-6,6-dimethylbicyclo[3.1.0]hexan-3-yl)carbamoyl)-5-(trifluoromethyl)-1H-pyrazol-1-yl)-1-methylcyclohexanecarboxylic acid] | 7240 |
| CC1(C)CCC(N(CC(=O)c2c(Cl)cc(Cl)cc2Cl)C(=O)c2cnn([C@H]3CC[C@H](C(=O)O)CC3)c2C(F)(F)F)CC1 [Example 189, trans-4-(4-((4,4-dimethylcyclohexyl)-(2-oxo-2-(2,4,6-trichlorophenyl)ethyl)carbamoyl)-5-(trifluoromethyl)pyrazol-1-yl)cyclohexane-1-carboxylic acid] | 30200 |
| CC1(C)CC(CN(CC(=O)c2c(Cl)cccc2C(F)(F)F)C(=O)c2cnn([C@H]3CC[C@](C)(C(=O)O)CC3)c2C(F)(F)F)C1 [Example 251, trans-4-(4-((2-(2-chloro-6-(trifluoromethyl)phenyl)-2-oxoethyl)-((3,3-dimethylcyclobutyl)methyl)carbamoyl)-5-(trifluoromethyl)pyrazol-1-yl)-1-methylcyclohexane-1-carboxylic acid] | 6030 |
| COc1cccc(Cl)c1C(=O)CN(Cc1cc(F)cc(F)c1)C(=O)c1cnn([C@H]2CC[C@H](C(=O)O)CC2)c1C(F)(F)F [Example 54, trans-4-(4-((2-(2-chloro-6-methoxyphenyl)-2-oxoethyl)(3,5-difluorobenzyl)carbamoyl)-5-(trifluoromethyl)-1H-pyrazol-1-yl)cyclohexanecarboxylic acid] | 70800 |
| O=C(CN(Cc1cc(F)cc(F)c1)C(=O)c1cnn([C@H]2CC[C@H](C(=O)O)CC2)c1CO)c1c(Cl)cncc1Cl [Example 159, trans-4-(4-((2-(3,5-dichloropyridin-4-yl)-2-oxoethyl)-((3,5-difluorophenyl)methyl)carbamoyl)-5-(hydroxymethyl)pyrazol-1-yl)cyclohexane-1-carboxylic acid] | > 1e+07 |
| Cc1cc(Cl)c(C(=O)CN(CC23CCC(C)(CC2)O3)C(=O)c2cnn([C@H]3CC[C@](C)(C(=O)O)CC3)c2C(F)(F)F)c(Cl)c1 [Example 226, trans-4-(4-((2-(2,6-dichloro-4-methylphenyl)-2-oxoethyl)-((1-methyl-7-oxabicyclo[2.2.1]heptan-4-yl)methyl)carbamoyl)-5-(trifluoromethyl)pyrazol-1-yl)-1-methylcyclohexane-1-carboxylic acid] | 3390 |
| CC1(C)[C@@H]2C[C@H](N(CC(=O)c3c(Cl)cccc3Cl)C(=O)c3cnn([C@H]4CC[C@](C)(C(=O)O)CC4)c3Cl)C[C@@H]21 [Example 363, trans-4-(5-chloro-4-((2-(2,6-dichlorophenyl)-2-oxoethyl)((1R,3r,5S)-6,6-dimethylbicyclo[3.1.0]hexan-3-yl)carbamoyl)-1H-pyrazol-yl)-1-methylcyclohexanecarboxylic acid] | 13200 |
| CC1(CN(CC(=O)c2c(Cl)cncc2Cl)C(=O)c2cnn([C@H]3CC[C@](C)(C(=O)O)CC3)c2Cl)CC1 [Example 378, trans-4-(5-chloro-4-((2-(3,5-dichloropyridin-4-yl)-2-oxoethyl)-((1-methylcyclopropyl)methyl)carbamoyl)pyrazol-1-yl)-1-methylcyclohexane-1-carboxylic acid] | 74100 |
| O=C(CN(Cc1ccccc1O)C(=O)c1cnn([C@H]2CC[C@H](C(=O)O)CC2)c1C(F)(F)F)c1c(Cl)cncc1Cl [Example 147, trans-4-(4-((2-(3,5-dichloropyridin-4-yl)-2-oxoethyl)-((2-hydroxyphenyl)methyl)carbamoyl)-5-(trifluoromethyl)pyrazol-1-yl)cyclohexane-1-carboxylic acid] | 347000 |
| C[C@]1(C(=O)O)CC[C@H](n2ncc(C(=O)N(CC(=O)c3c(Cl)cccc3C(F)(F)F)CC3(F)CCCC3)c2C(F)(F)F)CC1 [Example 270, trans-4-(4-((2-(2-chloro-6-(trifluoromethyl)phenyl)-2-oxoethyl)-((1-fluorocyclopentyl)methyl)carbamoyl)-5-(trifluoromethyl)pyrazol-1-yl)-1-methylcyclohexane-1-carboxylic acid] | 16200 |

From patent publication US9365522B2, “Pyrazole amide derivative” (AMGEN INC., priority 2015, dated 2016)
